Literature values in paper PMC3600580 (Experimental neurology, 2012).

Tested on: offspring
Conditions: developmental exposure, ref Kuriyama, et al., 2005, Rice, 2007, Suvorov, 2009

| SMILES | activity phenotype of offspring |
| --- | --- |
| Brc1ccc(Oc2ccc(Br)cc2Br)c(Br)c1 [BDE-47, 2,2′,4,4′-TetraBDE] | hyperactive |
| Brc1c(Br)c(Br)c(Oc2c(Br)c(Br)c(Br)c(Br)c2Br)c(Br)c1Br [compound 209] | hyperactive |
